Assay results taken from article PMC3885398, “Evaluation of the Antitumor Effects of BPR1J-340, a Potent and Selective FLT3 Inhibitor, Alone or in Combination with an HDAC Inhibitor, Vorinostat, in AML Cancer” (PLoS ONE, 2014).

Tests used:
[1] = molecular target: T1, FLT4 (VEGFR3) (Homo sapiens, UniProt P35916); experiment: Invitrogen SelectScreen kinase profiling; format: biochemical; design: purchased Invitrogen SelectScreen; conditions: 100 nM
Experimental: (§1) The FLT3 and VEGFR1/2 Kinase-Glo kinase assays were performed as reported by our earlier study. The VEGFR3 activity analysis was conducted using the same protocol described in the VEGFR1/2 assay. The kinase inhibition profiling and inhibitory activity of FLT3-D835Y, CSF1R, and TRKA were determined by Invitrogen SelectScreen® kinase profiling service (Carlsbad, California, USA).
(§2) BPR1J-340, a urea-substituted 3-phenyl-1H-5-pyrazolylamine-based compound, was designed through chemical modification of sulfonamide series of derivatives (BPR1J-097 series) by a structure-activity relationship (SAR) study (Fig. 1), [32]. For kinase inhibition specificity screening, BPR1J-340 was tested against 59 protein kinases covering the major oncogenic kinases of human protein kinome. […] In addition, BPR1J-340 inhibited TRKA, which is associated with the growth and metastasis of breast cancers, with an IC50 value of 8 nM. Given the high similarity of the ATP binding pockets of FLT3 and the Aurora kinases, the inhibitory activity toward Aurora A and Aurora B were measured. […] Taken together, BPRJ-340 is a selective kinase inhibitor with in vitro activity against FLT3, VEGFR2, VEGFR3 and TRKA receptor tyrosine kinases.
Target sequence in this assay (P35916 25-1363): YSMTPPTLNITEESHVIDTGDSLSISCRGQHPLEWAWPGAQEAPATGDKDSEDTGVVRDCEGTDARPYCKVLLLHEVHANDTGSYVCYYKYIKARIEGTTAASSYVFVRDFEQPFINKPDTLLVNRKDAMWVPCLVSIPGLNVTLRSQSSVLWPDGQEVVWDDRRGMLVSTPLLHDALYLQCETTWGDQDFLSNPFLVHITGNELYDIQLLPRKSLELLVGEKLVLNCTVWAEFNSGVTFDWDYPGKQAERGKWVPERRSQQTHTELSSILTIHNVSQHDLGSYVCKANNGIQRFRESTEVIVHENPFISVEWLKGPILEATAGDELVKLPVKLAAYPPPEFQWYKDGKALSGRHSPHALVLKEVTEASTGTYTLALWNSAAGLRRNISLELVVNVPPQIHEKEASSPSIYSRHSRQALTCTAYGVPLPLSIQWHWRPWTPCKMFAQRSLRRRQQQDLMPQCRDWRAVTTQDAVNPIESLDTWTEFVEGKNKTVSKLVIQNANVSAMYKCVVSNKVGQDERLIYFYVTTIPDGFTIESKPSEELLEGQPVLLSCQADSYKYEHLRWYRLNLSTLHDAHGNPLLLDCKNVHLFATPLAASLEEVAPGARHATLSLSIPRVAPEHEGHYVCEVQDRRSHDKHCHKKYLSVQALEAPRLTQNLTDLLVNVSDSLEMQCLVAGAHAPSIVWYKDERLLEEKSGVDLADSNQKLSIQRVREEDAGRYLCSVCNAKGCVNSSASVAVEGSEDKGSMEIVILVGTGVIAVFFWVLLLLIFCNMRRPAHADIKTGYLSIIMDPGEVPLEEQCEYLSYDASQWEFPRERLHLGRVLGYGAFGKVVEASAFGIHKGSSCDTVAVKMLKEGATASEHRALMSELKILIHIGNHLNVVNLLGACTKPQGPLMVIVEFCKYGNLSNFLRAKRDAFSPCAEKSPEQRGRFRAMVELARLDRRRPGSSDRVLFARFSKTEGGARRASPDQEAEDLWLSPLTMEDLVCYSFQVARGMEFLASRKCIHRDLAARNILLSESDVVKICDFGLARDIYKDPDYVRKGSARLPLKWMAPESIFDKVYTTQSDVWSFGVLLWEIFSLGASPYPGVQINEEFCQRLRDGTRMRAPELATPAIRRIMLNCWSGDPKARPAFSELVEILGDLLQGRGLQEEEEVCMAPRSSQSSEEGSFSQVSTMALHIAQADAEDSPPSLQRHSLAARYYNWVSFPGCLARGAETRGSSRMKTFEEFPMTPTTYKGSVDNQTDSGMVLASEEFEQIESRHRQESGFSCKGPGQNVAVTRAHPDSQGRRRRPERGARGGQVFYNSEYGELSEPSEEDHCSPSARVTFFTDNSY

[2] = molecular target: KDR (VEGFR2) (Homo sapiens, UniProt P35968); experiment: Invitrogen SelectScreen kinase profiling; format: biochemical; design: purchased Invitrogen SelectScreen; conditions: 100 nM
Experimental: as §1, §2

[3] = molecular target: T1, FLT4 (VEGFR3); experiment: VEGFR3 Kinase-Glo kinase assay; format: biochemical; design: VEGFR3 (residues M800-Y1363); purchased Upstate (Billerica, MA, USA)
Experimental: The FLT3 inhibitors, BPR1J-340 and AC220, were synthesized by our laboratory. The histone deacetylase inhibitor vorinostat (SAHA) was purchased from SelleckBio (Houston, TX, USA). All inhibitors were dissolved in dimethylsulfoxide (DMSO) at a stock concentration of 10 mM. The anti-FLT3 (sc-480, Santa Cruz Biotechnology, Santa Cruz, CA, USA), anti-pFLT3-Tyr591 (#3461, Cell Signaling Technology, Beverly, MA, USA) anti-STAT5 (#9363, Cell Signaling Technology), anti-pSTAT5–Tyr694 (#9351, Cell Signaling Technology), anti-cleaved poly ADP-ribose polymerase (PARP) (#9542, Cell Signaling Technology), anti-Mcl-1 (#4572, Cell Signaling Technology), anti-caspase 3 (#9662, Cell Signaling Technology) and anti-β-actin (Gtx110546, GeneTex, Irvine, CA, USA) antibodies were purchased for Western blotting analysis. The preparation of recombinant proteins, FLT3 (residues Y567-S993), VEGFR1 (residues R781-I1338) and VEGFR2 (residues V789-V1356), for biochemical kinase assay was described previously. The VEGFR3 (residues M800-Y1363) proteins were purchased from Upstate (Billerica, MA, USA).
The FLT3 and VEGFR1/2 Kinase-Glo kinase assays were performed as reported by our earlier study. […] The kinase inhibition profiling and inhibitory activity of FLT3-D835Y, CSF1R, and TRKA were determined by Invitrogen SelectScreen® kinase profiling service (Carlsbad, California, USA).
Target sequence in this assay (P35916 800-1363): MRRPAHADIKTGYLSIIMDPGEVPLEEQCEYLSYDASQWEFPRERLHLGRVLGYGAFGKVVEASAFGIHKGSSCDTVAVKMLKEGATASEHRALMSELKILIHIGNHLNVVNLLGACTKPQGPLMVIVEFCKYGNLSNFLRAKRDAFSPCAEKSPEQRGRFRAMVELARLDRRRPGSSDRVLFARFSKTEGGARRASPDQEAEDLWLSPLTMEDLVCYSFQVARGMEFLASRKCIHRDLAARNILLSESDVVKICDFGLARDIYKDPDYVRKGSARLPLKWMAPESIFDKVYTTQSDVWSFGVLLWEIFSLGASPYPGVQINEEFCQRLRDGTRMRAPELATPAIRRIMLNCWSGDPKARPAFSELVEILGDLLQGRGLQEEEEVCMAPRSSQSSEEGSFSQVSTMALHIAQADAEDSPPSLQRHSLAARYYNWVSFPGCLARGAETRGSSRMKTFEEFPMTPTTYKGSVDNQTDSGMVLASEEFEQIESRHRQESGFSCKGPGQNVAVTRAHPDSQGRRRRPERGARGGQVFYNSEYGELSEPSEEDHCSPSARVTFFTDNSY

[4] = molecular target: FLT3-ITD (Homo sapiens, UniProt P36888, ITD); experiment: FLT3 phosphorylation in transfected HEK293T cells, Western blot; format: cell-based; conditions: HEK293T cells expressing FLT3-ITD, 1 hr, FLT3 ligand 50 ng/mL 5 min
Experimental: (§3) Cells were lysed in lysis buffer (50 mM Tris, pH 8.0, 150 mM NaCl, 1% Triton X-100, 0.5% sodium deoxycholate, 0.1% SDS, 1 mM sodium orthovanadate, 1 mM PMSF, and 1 mM DTT). Protein lysates were resolved by SDS-PAGE and transferred onto a polyvinylidene difluoride (PVDF) membrane (Millipore, Bedford, MA, USA). The membranes were immunoblotted with appropriate antibodies and detected using the SuperSignal reagent (Pierce, Rockford, IL, USA) followed by exposure to X-ray film.
(§4) To address whether BPR1J-340 was able to inhibit the FLT3 signaling pathway in FLT3-driven cells, MV4;11 cells were treated with different concentrations of BPR1J-340 for 1 hour, and the phosphorylation status of FLT3 and STAT5 (Signal Transducer and Activator of Transcription 5), a critical down-stream modulator that plays a major role in FLT3-ITD signal transduction for cell expansion and survival, was examined by Western blot analysis. […] To investigate the difference in sensitivity between FLT3-WT and the activating mutants FLT3-ITD and FLT3-D835Y to BPR1J-340, HEK293T cells engineered to express FLT3-WT or mutants FLT3 (FLT3-ITD, FLT3-D835Y) were analyzed. […]
(§5) Figure 2 BPR1J-340 inhibits FLT3-dependent signaling. […] The phosphorylation status of FLT3 and STAT5 were evaluated by Western blot analysis. […] The FLT3 phosphorylation status in the transfected cells was evaluated by Western blot analysis.

[5] = molecular target: T2, FLT3-WT (Homo sapiens, UniProt P36888); experiment: as above; format: cell-based; conditions: HEK293T cells expressing FLT3-WT, 1 hr, FLT3 ligand 50 ng/mL 5 min
T2 construct: expressed in transfected cells; host or cells: HEK293T
Experimental: as §3, §4, §5

[6] = molecular target: FLT3-ITD (Homo sapiens, UniProt P36888); experiment: FLT3 phosphorylation in MV4;11 cells, Western blot; format: cell-based; conditions: 1 hour
Experimental: as §3, §4, §5

[7] = molecular target: Aurora A kinase (Homo sapiens, UniProt O14965); experiment: Aurora A kinase inhibition; format: biochemical
Experimental: as §2

KDR (VEGFR2), sequence (P35968 20-1356): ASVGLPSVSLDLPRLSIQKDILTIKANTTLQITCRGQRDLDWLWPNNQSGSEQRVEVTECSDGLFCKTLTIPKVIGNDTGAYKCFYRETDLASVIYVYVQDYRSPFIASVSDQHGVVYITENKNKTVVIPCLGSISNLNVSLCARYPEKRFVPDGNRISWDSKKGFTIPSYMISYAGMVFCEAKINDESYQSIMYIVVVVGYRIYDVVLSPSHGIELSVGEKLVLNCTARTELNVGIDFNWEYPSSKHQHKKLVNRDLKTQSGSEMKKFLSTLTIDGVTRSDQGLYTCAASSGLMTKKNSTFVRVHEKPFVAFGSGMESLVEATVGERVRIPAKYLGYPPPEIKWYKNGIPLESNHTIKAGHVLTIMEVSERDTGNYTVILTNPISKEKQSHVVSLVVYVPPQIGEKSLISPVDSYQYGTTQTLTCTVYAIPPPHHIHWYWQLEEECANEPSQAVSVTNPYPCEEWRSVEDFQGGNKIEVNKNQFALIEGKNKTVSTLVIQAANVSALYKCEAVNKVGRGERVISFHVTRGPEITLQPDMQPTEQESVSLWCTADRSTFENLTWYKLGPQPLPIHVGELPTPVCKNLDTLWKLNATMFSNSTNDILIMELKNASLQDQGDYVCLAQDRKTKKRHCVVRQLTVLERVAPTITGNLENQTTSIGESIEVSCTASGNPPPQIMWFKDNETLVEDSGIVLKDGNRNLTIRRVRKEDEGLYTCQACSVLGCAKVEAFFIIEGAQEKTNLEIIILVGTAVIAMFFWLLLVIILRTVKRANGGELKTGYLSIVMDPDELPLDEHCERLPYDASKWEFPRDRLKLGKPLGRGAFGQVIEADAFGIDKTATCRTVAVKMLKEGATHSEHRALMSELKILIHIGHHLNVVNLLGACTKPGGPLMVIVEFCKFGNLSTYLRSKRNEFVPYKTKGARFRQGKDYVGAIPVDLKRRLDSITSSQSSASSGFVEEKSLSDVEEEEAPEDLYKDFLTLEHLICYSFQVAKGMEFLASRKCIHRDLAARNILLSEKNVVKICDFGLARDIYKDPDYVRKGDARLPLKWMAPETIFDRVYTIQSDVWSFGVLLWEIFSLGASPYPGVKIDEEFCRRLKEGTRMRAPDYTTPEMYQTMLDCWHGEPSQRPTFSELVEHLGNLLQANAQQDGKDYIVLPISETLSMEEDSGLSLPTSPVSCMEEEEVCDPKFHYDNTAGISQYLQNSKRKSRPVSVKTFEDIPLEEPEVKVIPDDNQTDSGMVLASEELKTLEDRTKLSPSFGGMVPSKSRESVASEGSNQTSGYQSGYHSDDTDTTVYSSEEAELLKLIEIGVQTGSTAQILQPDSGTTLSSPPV
Aurora A kinase, sequence (O14965 whole entry): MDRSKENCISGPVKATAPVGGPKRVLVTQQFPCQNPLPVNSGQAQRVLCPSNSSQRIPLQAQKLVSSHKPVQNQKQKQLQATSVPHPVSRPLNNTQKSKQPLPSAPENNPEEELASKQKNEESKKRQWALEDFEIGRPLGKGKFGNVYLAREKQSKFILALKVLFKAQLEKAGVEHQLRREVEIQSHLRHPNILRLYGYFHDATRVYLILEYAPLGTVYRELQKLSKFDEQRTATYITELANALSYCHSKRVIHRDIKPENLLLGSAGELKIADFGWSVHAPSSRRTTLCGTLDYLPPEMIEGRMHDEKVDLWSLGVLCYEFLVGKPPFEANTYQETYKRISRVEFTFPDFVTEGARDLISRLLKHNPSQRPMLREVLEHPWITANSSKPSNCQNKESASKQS
T2 sequence (P36888 27-993): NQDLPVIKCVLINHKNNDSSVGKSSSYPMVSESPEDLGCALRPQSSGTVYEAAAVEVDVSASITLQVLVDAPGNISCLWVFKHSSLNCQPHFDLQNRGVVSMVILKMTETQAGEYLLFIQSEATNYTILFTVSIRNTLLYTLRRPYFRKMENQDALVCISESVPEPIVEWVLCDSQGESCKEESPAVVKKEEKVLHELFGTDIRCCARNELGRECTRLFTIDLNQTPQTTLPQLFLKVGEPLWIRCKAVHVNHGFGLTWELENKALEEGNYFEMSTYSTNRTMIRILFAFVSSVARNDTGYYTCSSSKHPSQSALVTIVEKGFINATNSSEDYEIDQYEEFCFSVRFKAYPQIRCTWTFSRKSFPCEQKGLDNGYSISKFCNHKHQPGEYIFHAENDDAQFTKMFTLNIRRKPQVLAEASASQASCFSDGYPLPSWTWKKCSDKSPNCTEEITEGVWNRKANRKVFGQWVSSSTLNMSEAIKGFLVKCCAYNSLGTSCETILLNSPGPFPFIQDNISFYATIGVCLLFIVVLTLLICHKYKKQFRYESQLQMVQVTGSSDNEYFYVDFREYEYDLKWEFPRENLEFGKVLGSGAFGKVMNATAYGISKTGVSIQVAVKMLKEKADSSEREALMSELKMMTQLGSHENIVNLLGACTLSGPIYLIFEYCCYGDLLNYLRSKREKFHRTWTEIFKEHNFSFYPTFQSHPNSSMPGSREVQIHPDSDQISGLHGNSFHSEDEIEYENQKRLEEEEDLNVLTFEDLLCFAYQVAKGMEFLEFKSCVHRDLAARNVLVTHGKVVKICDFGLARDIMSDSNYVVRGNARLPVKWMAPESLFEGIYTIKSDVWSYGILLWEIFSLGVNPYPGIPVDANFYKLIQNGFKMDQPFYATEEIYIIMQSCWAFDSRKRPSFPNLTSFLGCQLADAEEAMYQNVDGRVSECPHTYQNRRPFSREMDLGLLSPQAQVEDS
FLT3-ITD (Homo sapiens, UniProt P36888, ITD), sequence (P36888 27-993, change not shown): as the sequence (P36888 27-993) above
FLT3-ITD (Homo sapiens, UniProt P36888), sequence (P36888 27-993, change not shown): as the sequence (P36888 27-993) above

CCc1cc(NC(=O)NCc2ccc(-c3cc(NC(=O)c4ccc(CN5CCN(C)CC5)cc4)[nH]n3)cc2)no1 [BPR1J-340, N1-(3-4-[([(5-ethyl-3-isoxazolyl)amino]carbonylamino)methyl]phenyl-1H-5-pyrazolyl)-4-[(4-methylpiperazino)methyl]benzamide]
inhibition at 0.1 µM [1]: 45%
inhibition at 0.1 µM [2]: 69%
IC50 [3]: 29 ± 7 nM
IC50 [4]: 10 to 100 nM
IC50 [5]: 10 to 100 nM
IC50 [6]: ~1 nM
IC50 [7]: 1040 nM
